# Earlier results in PMC12210654, “Palazestrant, a novel oral Complete Estrogen Receptor Antagonist (CERAN) and Selective Estrogen Receptor Degrader (SERD), in patients with ER+/HER2− advanced or metastatic breast cancer: phase 1/2 study results” (Breast Cancer Research : BCR, 2025).
# Tested on: ER
# Design: method as in PMID 38102750
# Conditions: cited from earlier work
smiles,measurement,value
"CCCN1CC(Oc2ccc([C@@H]3c4[nH]c5ccccc5c4C[C@@H](C)N3CC(C)(C)F)cc2)C1 [palazestrant, Palazestrant]",potency in vitro relative to imlunestrant,greater potency in vitro
